Results reported in patent publication US20100104629A1, “CATIONIC LIPIDS AND USES THEREOF” (ABBOTT LABORATORIES, priority 2008, published 2010).

Experiments:
[1] = system: β-galactosidase in tumor sections; assay: IHC analysis of β-galactosidase in intraliver tumors after i.v. dosing of formulated siRNA; assay type: in vivo, Scid female mice; parameters: key to β-galactosidase IHC staining score, column 1 / β-galactosidase IHC staining score, column 2 / β-galactosidase IHC staining score, column 3 / β-galactosidase IHC staining score, column 4 / β-galactosidase IHC staining score, column 5 / β-galactosidase IHC staining score, column 6: −: there was no staining, a small area of weak staining, or disperse strong single cell staining; +/−: there was 5% of the section with weak staining or one patch of strong staining; +: there was 15% of the section with strong staining; ++: there was ˜50% of the section with strong straining; +++: there was 80% of the section with strong straining; ++++: the whole section had strong staining
Method: The animal studies were carried out in accordance with internal Institutional Animal Care and Use Committee (IACUC) guidelines at Abbott Laboratories. Scid female mice at 6 to 8 weeks of age were obtained from Charles River Laboratory and used for intraliver tumor models. Mouse livers were exposed by vertical incision on mouse abdomens and the tumor cells were directly injected into the livers. The incision was closed by suture and wound clips. All cell lines used for creating xenograft tumors were subjected to the IMPACT profile I test (18 agents) at the University of Missouri Research Animal Diagnostic and Investigative Laboratory, and all cell lines were found negative for the 18 infectious agents tested. Tumor cells were suspended in a 1:1 mixture of S-MEM (Invitrogen, Carlsbad, Calif.) and matrigel (BD Bioscience, San Jose, Calif.) and inoculated at 1×10E6 cells per animal.
Treatments were started 3˜4 weeks after tumor inoculation. Formulated or unformulated siRNAs were administrated via tail vein (i.v) injection.
IHC was carried out as previously described [Li, L., et al., Evaluating hypoxia-inducible factor-1alpha as a cancer therapeutic target via inducible RNA interference in vivo. Cancer Res, 2005. 65(16): p. 7249-58]. Briefly, tumors were excised, cut into pieces of less than 3 mm in thickness and immediately fixed in buffered formalin solution with neutral pH (Sigma, St. Louis, Mo.). The formalin-fixed and paraffin-embedded tumor sections were then used for staining The mouse anti-β-galactosidase mAb (Promega, Madison, Wis.) was used to detect β-galactosidase in tumor sections. DAB (3,3′-diaminobenzidine) was used as the chromogen. IHC images were acquired using the Nikon TE2000 inverted microscope. The β-galactosidase staining was evaluated by 2 people independently based on the scoring system listed below. The average of the score was calculated for each tumor.
−, there was no staining, a small area of weak staining, or disperse strong single cell staining +/−, there was 5% of the section with weak staining or one patch of strong staining +, there was 15% of the section with strong staining ++, there was ˜50% of the section with strong straining +++, there was 80% of the section with strong straining ++++, the whole section had strong staining

MDA435-TetR-Luc cells = assay: Transfection efficiency of MDA435-TetR-Luc cells with Lipid-Based Particles (TetRLuc assay); assay type: cell-based; settings: formulation employing the cationic lipid
Method: To determine the knockdown efficacy of Lipid-Based Particles in an in vitro assay, MDA435-TetR-Luc cells (The positive readout reporter cell line MDA435-TetR-Luc contained a stably integrated copy of the luciferase gene expressed from a CMV promoter containing the tetR operator site. In addition, gene coding for a destabilized TetR protein was expressed in this cell line.) were plated in 96 well plate at a density of 10K cells per well in 100 ul of DMEM (Dulbecco's Modified Eagles Medium, Invitrogen Corp.) containing 10% fetal bovine serum (Invitrogen Corp.). Appropriate dilutions of Lipid-Based Particles were made in DMEM+10% fetal bovine serum medium, 10 ul of the diluted material was transferred into each well in triplicate. Transfected cells were further incubated at 37° C. for a period of 72 hours. […] The graphs represent average of triplicate readings of the Lipid-Based Particles treated sample divided by the average of readings from 9 wells treated with doxycycline.
The ability of novel cationic lipids to transfect siRNA in vitro was evaluated in the TetRLuc assay. By utilizing a releasable PEG lipid as for examples in formulations “a” or “b”, the transfection efficiency of the unshielded or partially shielded particle may be determined.

| SMILES | β-galactosidase IHC staining score, column 1 ([1]; intraliver tumor, i.v. tail vein, column 1 of 6 (not further defined)) | β-galactosidase IHC staining score, column 2 ([1]; intraliver tumor, i.v. tail vein, column 2 of 6 (not further defined)) | β-galactosidase IHC staining score, column 3 ([1]; intraliver tumor, i.v. tail vein, column 3 of 6 (not further defined)) | β-galactosidase IHC staining score, column 4 ([1]; intraliver tumor, i.v. tail vein, column 4 of 6 (not further defined)) | β-galactosidase IHC staining score, column 5 ([1]; intraliver tumor, i.v. tail vein, column 5 of 6 (not further defined)) | β-galactosidase IHC staining score, column 6 ([1]; intraliver tumor, i.v. tail vein, column 6 of 6 (not further defined)) | in vitro transfection activity (MDA435-TetR-Luc cells) | in vivo delivery ([1]; formulation employing the cationic lipid) |
| --- | --- | --- | --- | --- | --- | --- | --- | --- |
| C[C@H]1c2cccc(O)c2C(=O)C2=C(O)[C@]3(O)C(=O)C(C(N)=O)=C(O)[C@@H](N(C)C)[C@@H]3[C@@H](O)[C@@H]21 [Doxycycline] | +++ | +++ | +++ | +++ | +++ | +++ |  |  |
| CCCCC/C=C\C/C=C\CCCCCCCCOCC(CN1CCCC1)OCCCCCCCC/C=C\C/C=C\CCCCC (stereo not drawn) [Example 1, 1-(2,3-bis((9Z,12Z)-octadeca-9,12-dienyloxy)propyl)pyrrolidine] |  |  |  |  |  |  | provided in vitro transfection activity | efficient in vivo delivery |
| CCCCC/C=C\C/C=C\CCCCCCCCOCC(CN(CC)CC)OCCCCCCCC/C=C\C/C=C\CCCCC (stereo not drawn) [Example 57, N,N-diethyl-2,3-bis((9Z,12Z)-octadeca-9,12-dienyloxy)propan-1-amine] |  |  |  |  |  |  | may diminish activity |  |
